This experiment concerns the target T1, Gonadotropin-releasing hormone receptor (Rattus norvegicus, UniProt P30969).
T1 sequence (P30969 whole entry): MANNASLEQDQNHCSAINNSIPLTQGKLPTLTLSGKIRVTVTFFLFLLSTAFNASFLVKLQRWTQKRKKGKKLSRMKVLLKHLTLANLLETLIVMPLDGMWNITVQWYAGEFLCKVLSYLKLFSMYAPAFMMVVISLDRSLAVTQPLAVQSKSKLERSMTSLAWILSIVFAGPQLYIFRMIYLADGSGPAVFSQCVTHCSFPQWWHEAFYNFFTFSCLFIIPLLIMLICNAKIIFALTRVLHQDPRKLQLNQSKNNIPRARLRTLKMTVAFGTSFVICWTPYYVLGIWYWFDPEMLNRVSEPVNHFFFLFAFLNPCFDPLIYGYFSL
Nature of the experiment: Concentration of the peptide which displaces 50% of 125 I-[D-Lys6] gonadotropin-releasing hormone bound to rat pituitary membranes. It is filed as cell membranes, Membrane.

Structures are written as SMILES.

As to `CC(=O)N[C@H](Cc1ccc2ccccc2c1)C(=O)N[C@H](Cc1ccc(Cl)cc1)C(=O)N[C@H](Cc1ccccn1)C(=O)N[C@H](CCCN=C(N)N)C(=O)N[C@@H](CCCNC(N)=O)C(=O)N1CCC[C@H]1C(=O)N[C@H](C)C(N)=O`, the IC50 (usually the concentration that inhibits the measured activity by half) was determined as 72 nM. In the case of `CCCC[C@H](NC(=O)[C@@H](C)NC(=O)[C@@H](Cc1ccccn1)NC(=O)[C@@H](Cc1ccc(Cl)cc1)NC(=O)[C@@H](Cc1ccc2ccccc2c1)NC(C)=O)C(=O)N1CCC[C@H]1C(=O)N[C@H](C)C(N)=O`, the IC50 is 88 nM. This IC50 and that of the compound before are within 1.5-fold of each other. `CC(=O)N[C@H](Cc1ccc2ccccc2c1)C(=O)N[C@H](Cc1ccc(Cl)cc1)C(=O)N[C@H](Cc1ccccn1)C(=O)N[C@H](C)C(=O)N[C@@H](CCCNC(N)=O)C(=O)N1CCC[C@H]1C(=O)N[C@H](C)C(N)=O` yielded an IC50 of 23 nM. For `CC(=O)N[C@H](Cc1ccc2ccccc2c1)C(=O)N[C@H](Cc1ccc(Cl)cc1)C(=O)N[C@H](Cc1ccccn1)C(=O)N[C@@H](CC(C)C)C(=O)N[C@@H](CCCN=C(N)N)C(=O)N1CCC[C@H]1C(=O)N[C@H](C)C(N)=O`, the IC50 amounted to 81 nM. Against the preceding compound, the IC50 is about 3.5-fold higher. Under `CC(=O)N[C@H](Cc1ccc2ccccc2c1)C(=O)N[C@H](Cc1ccc(Cl)cc1)C(=O)N[C@H](Cc1ccccn1)C(=O)N[C@H](C)C(=O)N[C@@H](CCCCNNC(=O)c1cccnc1)C(=O)N1CCC[C@H]1C(=O)N[C@H](C)C(N)=O` stands 14 nM; under `CC(=O)N[C@H](Cc1ccc2ccccc2c1)C(=O)N[C@H](Cc1ccc(Cl)cc1)C(=O)N[C@H](Cc1ccccn1)C(=O)Nc1ccccc1C(=O)N[C@@H](CCCNC(=N)N)C(=O)N1CCC[C@H]1C(=O)N[C@H](C)C(N)=O`, 140 nM. `CC(=O)N[C@@H](Cc1ccc2ccccc2c1)C(=O)N[C@H](Cc1ccc(Cl)cc1)C(=O)N[C@H](Cc1ccccn1)C(=O)N[C@@H](Cc1ccc(O)cc1)C(=O)N[C@H](CCCN=C(N)N)C(=O)N1CCC[C@@H]1C(=O)N[C@@H](C)C(N)=O` showed an IC50 of 25 nM. As to `CC(=O)N[C@H](Cc1ccc2ccccc2c1)C(=O)N[C@H](Cc1ccc(Cl)cc1)C(=O)N[C@H](Cc1ccccn1)C(=O)N[C@H](C)C(=O)N1CCC[C@H]1C(=O)N[C@H](C)C(N)=O`, the IC50 turned out to be 1500 nM.

Consider `CC(=O)N[C@H](Cc1ccccc1)C(=O)N[C@H](Cc1ccccc1)C(=O)N[C@H](Cc1ccccc1)C(=O)NCC(=O)N[C@@H](CCCNC(=N)N)C(=O)N1CCC[C@H]1C(=O)N[C@H](C)C(N)=O`, for which the IC50 was 230 nM. `CC(=O)N[C@H](Cc1ccc2ccccc2c1)C(=O)N[C@H](Cc1ccc(Cl)cc1)C(=O)N[C@H](Cc1ccccn1)C(=O)NCCC(=O)N[C@@H](CCCNC(=N)N)C(=O)N1CCC[C@H]1C(=O)N[C@H](C)C(N)=O` showed an IC50 of 38 nM. Against the preceding compound, the IC50 is about 6.1-fold lower. `CC(=O)N[C@H](Cc1ccc2ccccc2c1)C(=O)N[C@H](Cc1ccc(Cl)cc1)C(=O)N[C@H](Cc1ccccn1)C(=O)N[C@H](C)C(=O)N[C@@H](CCCNC(=N)N)C(=O)N1CCC[C@H]1C(=O)N[C@H](C)C(N)=O` showed an IC50 of 17 nM. Next, `CC(=O)N[C@@H](Cc1ccc2ccccc2c1)C(=O)N[C@H](Cc1ccc(Cl)cc1)C(=O)N[C@H](Cc1ccccn1)C(=O)N[C@H](CCCCN)C(=O)N1CCC[C@@H]1C(=O)N[C@@H](C)C(N)=O`: 550 nM. `CC(=O)N[C@H](Cc1ccc2ccccc2c1)C(=O)N[C@H](Cc1ccc(Cl)cc1)C(=O)N[C@H](Cc1ccccn1)C(=O)NCC(=O)N1CCC[C@H]1C(=O)N[C@H](C)C(N)=O` yielded an IC50 of 45 nM. As to `CC(=O)N[C@H](Cc1ccc2ccccc2c1)C(=O)N[C@H](Cc1ccc(Cl)cc1)C(=O)N[C@H](Cc1ccccn1)C(=O)N[C@@H](CCCN=C(N)N)C(=O)N1CCC[C@H]1C(=O)N[C@H](C)C(N)=O`, the IC50 amounted to 130 nM. Against the preceding compound, the IC50 is about 2.9-fold higher. In the case of `CC(=O)N[C@H](Cc1cccc2ccccc12)C(=O)N[C@H](Cc1ccccc1)C(=O)N[C@H](Cc1ccccc1)C(=O)NCC(=O)N[C@@H](CCCNC(=N)N)C(=O)N1CCC[C@H]1C(=O)N[C@H](C)C(N)=O`, the IC50 was determined as 370 nM. `CC(=O)N[C@H](Cc1ccc2ccccc2c1)C(=O)N[C@H](Cc1ccc(Cl)cc1)C(=O)N[C@H](Cc1ccccn1)C(=O)N[C@@H](C)C(=O)N[C@@H](CCCNC(=N)N)C(=O)N1CCC[C@H]1C(=O)N[C@H](C)C(N)=O`: the IC50 amounted to 28 nM. Compound `CC(=O)N[C@H](Cc1ccc2ccccc2c1)C(=O)N[C@H](Cc1ccccc1)C(=O)N[C@H](Cc1ccccc1)C(=O)NCC(=O)N[C@@H](CCCN=C(N)N)C(=O)N1CCC[C@H]1C(=O)N[C@H](C)C(N)=O` displayed a 50% inhibitory concentration (IC50) of 28 nM.

In the case of `CC(=O)N[C@H](Cc1ccc2ccccc2c1)C(=O)N[C@H](Cc1ccc(Cl)cc1)C(=O)N[C@H](Cc1ccccn1)C(=O)NC1(C(=O)N[C@@H](CCCN=C(N)N)C(=O)N2CCC[C@H]2C(=O)N[C@H](C)C(N)=O)CCC1`, the IC50 turned out to be 42 nM. As to `CC(=O)N[C@H](Cc1ccc2ccccc2c1)C(=O)N[C@H](Cc1ccc(Cl)cc1)C(=O)N[C@H](Cc1ccccn1)C(=O)N[C@H](C)C(=O)N[C@@H](CCCCNC(C)C)C(=O)N1CCC[C@H]1C(=O)N[C@H](C)C(N)=O`, the IC50 worked out at 130 nM. For the compound `CC(=O)N[C@H](Cc1ccc2ccccc2c1)C(=O)N[C@H](Cc1ccc(Cl)cc1)C(=O)N[C@H](Cc1cccnc1)C(=O)N1CCC[C@H]1C(=O)N[C@@H](CCCN=C(N)N)C(=O)N1CCC[C@H]1C(=O)N[C@H](C)C(N)=O`, the IC50 stood at 110 nM. In the case of `C[C@@H](NC(=O)[C@@H]1CCCN1C(=O)[C@H](CCCNC(=N)N)NC(=O)CNC(=O)[C@@H](Cc1ccccc1)NC(=O)[C@@H](Cc1ccccc1)NC(=O)[C@@H](Cc1ccc2ccccc2c1)NC(=O)OCC1c2ccccc2-c2ccccc21)C(N)=O`, the IC50 was determined as 2200 nM.

Turning to `CC(=O)N[C@H](Cc1c[nH]c2ccccc12)C(=O)N[C@H](Cc1ccccc1)C(=O)N[C@H](Cc1ccccc1)C(=O)NCC(=O)N[C@@H](CCCN=C(N)N)C(=O)N1CCC[C@H]1C(=O)N[C@H](C)C(N)=O`, the IC50 amounted to 450 nM. This IC50 lies about 4.9-fold lower than the previous one.

In turn, `CC(=O)N[C@H](Cc1ccc2ccccc2c1)C(=O)N[C@H](Cc1ccc(Cl)cc1)C(=O)N[C@H](Cc1ccccn1)C(=O)N(C)CC(=O)N[C@@H](CCCNC(=N)N)C(=O)N1CCC[C@H]1C(=O)N[C@H](C)C(N)=O` came in with an IC50 of 31 nM. Against the preceding compound, the IC50 is about 15-fold lower. In turn, `CC(=O)N[C@H](Cc1ccc2ccccc2c1)C(=O)N[C@H](Cc1ccc(Cl)cc1)C(=O)N[C@H](Cc1ccccn1)C(=O)N[C@H](CC(C)C)C(=O)N[C@@H](CCCNC(=N)N)C(=O)N1CCC[C@H]1C(=O)N[C@H](C)C(N)=O` registered an IC50 of 74 nM.

Compound `C[C@@H](NC(=O)[C@@H]1CCCN1C(=O)[C@H](CCCN=C(N)N)NC(=O)CNC(=O)[C@@H](Cc1ccccc1)NC(=O)[C@@H](Cc1ccccc1)NC(=O)[C@H](N)Cc1ccc2ccccc2c1)C(N)=O` came in with an IC50 of 280 nM. Next, `CC(=O)N[C@H](Cc1ccc2ccccc2c1)C(=O)N[C@H](Cc1ccc(Cl)cc1)C(=O)N[C@H](Cc1ccccn1)C(=O)N[C@H](CCCNC(=N)N)C(=O)N1CCC[C@H]1C(=O)N[C@H](C)C(N)=O`: 70 nM; `CC(=O)N[C@H](Cc1ccc2ccccc2c1)C(=O)N[C@H](Cc1ccc(Cl)cc1)C(=O)N[C@H](Cc1ccccn1)C(=O)N[C@H](C)C(=O)N[C@@H](CCCCN)C(=O)N1CCC[C@H]1C(=O)N[C@H](C)C(N)=O`: 20 nM; `CC(=O)N[C@H](Cc1ccc2ccccc2c1)C(=O)N[C@H](Cc1ccc(Cl)cc1)C(=O)N[C@H](Cc1ccccn1)C(=O)NCC(=O)N[C@@H](CCCN=C(N)N)C(=O)N1CCC[C@H]1C(=O)N[C@H](C)C(N)=O`: 7 nM. The compound `CC(=O)N[C@H](Cc1ccc2ccccc2c1)C(=O)N[C@H](Cc1ccc(Cl)cc1)C(=O)N[C@H](Cc1ccccn1)C(=O)NCC(=O)N[C@H](CCCNC(=N)N)C(=O)N1CCC[C@H]1C(=O)N[C@H](C)C(N)=O` displayed an IC50 of 16 nM.
